The test system of one series is HL60 cells. Description: Cell proliferation assay (CellTiter 96 AQueous) in HL60 cells. The note with it: Homo sapiens, HL-60, 72 h, read-out: GI50 (µM) ± SE HL60.
A further series deals with U937 cells. The series can be described thus: Cell proliferation assay (CellTiter 96 AQueous) in U937 cells. As to conditions: Homo sapiens, U-937, 72 h, read-out: GI50 (µM) ± SE U937.
A further series has as its target T1, recombinant human HDAC1 (Homo sapiens, UniProt Q13547).
T1 construct: purchased BPS Biosciences (San Diego, CA, USA)
The series can be described thus: HDAC1 in vitro fluorescence-based inhibition assay (ZMAL substrate). It counts as biochemical. As to conditions: for IC50: recombinant human HDAC1, ZMAL 10.5 µM, 90 min 37 °C, read-out: IC50 (µM) ± SE HDAC1. From the text: (§1) In order to investigate a potential subtype selectivity among different HDAC classes, we first tested them against the recombinant histone deacetylases HDAC1 (class I) and HDAC6 (class llb). […] To further address this issue, we also tested the respective compounds against the class l histone deacetylase HDAC8 (also see Table 1).
(§2) Recombinant human HDAC1 and 6 were purchased from BPS Biosciences (San Diego, CA, USA), and recombinant human HDAC8 was produced as described before. Inhibition tests of human HDAC1 and 6 were conducted using carboxybenzyl acetyllysine aminomethylcoumarin (ZMAL) as a substrate. […] For testing of HDAC8, the commercial Fluor de Lys drug discovery kit (BML-KI178) (Enzo Life Sciences, Lausen, Switzerland) was used according to the manufacturer’s instruction. Briefly, the test compound, Fluor de Lys-HDAC8 substrate (50 μM), and enzyme were incubated for 90 min at 37 °C with subsequent addition of 50 μL of Developer II (BML-KI176) (Enzo Life Sciences, Lausen, Switzerland) and further incubation for 45 min at 30 °C. In both assays, trichostatin A (2 μM) was used to stop the reaction. Fluorescence in both cases was measured in a plate reader (BMG Polarstar, BMG Labtech, Ortenberg, Germany) with excitation at λ = 390 nm and emission at λ = 460 nm.

A further series deals with T2, recombinant human HDAC6 (Homo sapiens, UniProt Q9UBN7).
T2 construct: purchased BPS Biosciences (San Diego, CA, USA)
T2 sequence (Q9UBN7 1-1215): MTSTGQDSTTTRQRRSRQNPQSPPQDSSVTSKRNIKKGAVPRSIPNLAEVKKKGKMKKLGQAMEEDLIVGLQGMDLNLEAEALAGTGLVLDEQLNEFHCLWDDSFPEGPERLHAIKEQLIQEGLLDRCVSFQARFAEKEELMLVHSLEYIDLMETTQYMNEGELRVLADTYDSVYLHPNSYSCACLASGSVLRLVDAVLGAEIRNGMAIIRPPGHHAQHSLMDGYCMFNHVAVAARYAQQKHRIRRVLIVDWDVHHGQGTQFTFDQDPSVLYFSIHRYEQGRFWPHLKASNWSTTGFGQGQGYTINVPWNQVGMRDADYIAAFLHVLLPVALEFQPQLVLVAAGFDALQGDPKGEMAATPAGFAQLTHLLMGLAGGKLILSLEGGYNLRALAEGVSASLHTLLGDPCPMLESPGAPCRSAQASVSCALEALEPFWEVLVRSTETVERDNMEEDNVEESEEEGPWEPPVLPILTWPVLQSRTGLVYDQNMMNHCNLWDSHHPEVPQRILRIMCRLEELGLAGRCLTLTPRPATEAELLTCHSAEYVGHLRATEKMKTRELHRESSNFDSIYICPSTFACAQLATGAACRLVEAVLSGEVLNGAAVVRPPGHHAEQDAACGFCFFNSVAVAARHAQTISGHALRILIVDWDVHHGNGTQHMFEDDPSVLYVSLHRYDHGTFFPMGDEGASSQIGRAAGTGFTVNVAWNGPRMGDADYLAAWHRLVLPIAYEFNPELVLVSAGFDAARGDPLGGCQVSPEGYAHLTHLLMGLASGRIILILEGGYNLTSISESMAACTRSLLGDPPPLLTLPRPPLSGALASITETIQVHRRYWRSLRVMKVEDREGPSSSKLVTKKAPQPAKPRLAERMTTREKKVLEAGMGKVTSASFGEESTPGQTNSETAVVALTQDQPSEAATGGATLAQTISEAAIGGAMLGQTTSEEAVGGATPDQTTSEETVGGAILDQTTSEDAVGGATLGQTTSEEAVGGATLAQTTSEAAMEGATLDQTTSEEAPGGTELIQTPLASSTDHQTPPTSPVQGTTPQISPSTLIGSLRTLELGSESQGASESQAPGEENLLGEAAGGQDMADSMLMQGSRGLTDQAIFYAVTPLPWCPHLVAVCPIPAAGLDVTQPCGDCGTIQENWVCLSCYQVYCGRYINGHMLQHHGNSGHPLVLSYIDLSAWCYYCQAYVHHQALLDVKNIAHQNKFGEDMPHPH
The series can be described thus: HDAC6 in vitro fluorescence-based inhibition assay (ZMAL substrate). The note with it: recombinant human HDAC6, ZMAL 10.5 µM, 90 min 37 °C; read-out: IC50 (µM) ± SE HDAC6. It counts as biochemical.
Excerpt: as §1, §2

Series [1] relates to acetylation of histone H3 and tubulin in HL60 cells. The series can be described thus: Western blot of acetylation levels of histone H3 and tubulin in HL60 cells. In kind it is cell-based, human. As to conditions: 4 h. As for the experimental part:
An inhibition of deacetylation in this experiment is expected to lead to hyperacetylation of the respective proteins. Besides histone H3, acetylated tubulin was chosen as a target protein. As tubulin is only accepted as a target by HDAC 6 [21], this allows us to explore subtype selectivity in a cellular setting (see Figure 4).
HL60 cells were treated with the inhibitors in the given concentrations. Cells treated with dimethyl sulfoxide as a vehicle were used as controls. After an incubation time of 4 h, cells were transferred into 50-mL Falcon tubes and centrifuged (300× g, 5 min). The supernatant was removed, and the cells were washed with PBS, before they were transferred to 1.7-mL reaction tubes. The cells were lysated with Bio-Rad loading buffer, and the cell suspension was heated to 95 °C for 5 min. The proteins then were separated using a 15% SDS-polyacrylamide gel electrophoresis and transferred to a polyvinylidene fluoride (PVDF) membrane (Roti-PVDF, Carl Roth, Karlsruhe, Germany). Acetylation levels were detected using an anti-acetyl histone H3 antibody (Millipore, Billerica, MA, USA) and an anti-acetyl-α-tubulin antibody (Sigma Aldrich, St. Louis, MO, USA). An antibody directed against GAPDH (Sigma Aldrich) was used as a loading control.

The nature of series [2]: Stability analysis under in vitro assay conditions, HPLC quantification of released hydroxamic acid. In kind it is physicochemical. As to conditions: in vitro assay conditions without substrate, HDAC1 present, compound 2.4 mM, 90 min 37 °C. As for the experimental part:
In order to address the question if the newly-synthesized carbamates are hydrolyzed during the assay procedure or if they really serve as HDAC inhibitors themselves, stability stress tests were performed. For this purpose, the compounds were subjected to the standard in vitro assay conditions, but without adding a substrate as, no enzyme conversion should be observed in these experiments. After 90 min of incubation at 37 °C, the release of SAHA of the different samples was detected and quantified via HPLC. This led to the finding that a release of SAHA could be detected for all samples (see Table 1). […] This means that the question if the carbamate scaffold represents a new warhead for HDAC inhibition or if the degradation to SAHA is solely responsible for the observed inhibitory effects cannot be resolved completely.
To test the stability of Compound 9 under assay conditions, we also performed stability analysis with HPLC quantification. This experiment led to the finding that 8.7% of the carbamate 9 is degraded under release of bufexamac during incubation time. This fraction of released bufexamac may contribute to in vitro and cellular HDAC inhibition, but the observed selectivity profile of the carbamate in the in vitro assays clearly implies an intrinsic HDAC activity of carbamates.
For stability tests, the carbamates were subjected to the described in vitro assay conditions (see above) without adding the substrate ZMAL and without the second incubation step with trypsin. Compounds were applied in a final concentration of 2.4 mM, and recombinant HDAC1 was used as the enzyme. After 90 min of incubation at 37 °C, the release of SAHA was detected via HPLC on an Agilent 1200 series device. The employed analytical column was a Kinetex 5u XB-C18, 100 Å, 250 × 4.6 mm (Phenomenex, Torrance, CA, USA) with the ReproSil 100 C18 5-µm precolumn (Jasco, Oklahoma City, OK, USA). The following conditions were applied: Eluent A: H2O containing 0.05% TFA, Eluent B: acetonitrile containing 0.05% TFA, linear gradient conditions (0–4 min, A = 90%, B = 10%; 4–29 min, linear increase to 100% of B; 29–31 min, B = 100%; 31.5–40 min, A = 10%, B = 90%); injection volume: 30 µL, flow rate: 1 mL/min; detection wavelength: λ = 254 nm. For evaluation, the ChemStation software from Agilent was used. To quantify the released amount of SAHA and bufexamac, calibration curves were plotted by incubating DMSO stocks of these compounds under in vitro assay conditions with final compound concentrations ranging from 1 µM–200 µM. HPLC analysis with the conditions described above led to the following equations: y = 13.935x − 27.918 for SAHA and y = 0.6099x + 1.1301 for bufexamac.

Series [3] has as its system HDAC activity in HL60 cells. The series can be described thus: Cellular HDAC inhibition assay (MAL substrate) in HL60 cells. As to conditions: Homo sapiens, HL-60, read-out: IC50 (µM) ± SE cellular HDAC inhibition HL60.
Method: Therefore, we decided to adapt this assay for a cellular setting allowing us to verify the previous results by assessing HDAC inhibition in the human leukemia cell lines HL60 and U937 (see the right side of Table 2).
After 2 h of incubation, 50 µL substrate solution were added, containing tert-butyloxycarbonyl acetyl lysine aminomethylcoumarin (MAL) as a substrate (300 µM final assay concentration) and IGEPAL CA-630 (final concentration 0.05%). After 2 more hours of incubation at 37 °C and 5% CO2, 50 µL stop solution consisting of 0.5 µL TSA (100 µM) and 5 µL trypsin solution (10 mg/mL) in 44.5 µL cell buffer were added. This mixture was incubated for a further 20 min at 37 °C. Fluorescence was measured in a plate reader (BMG Polarstar) with excitation at λ = 390 nm and emission at λ = 460 nm.

Structures are written as SMILES. Several values for one entry are separate records, joined by “and”; a condition that tells them apart may be missing. Identical values can stand only once. Counter-ions that a name gives are not always drawn.

T1 sequence (Q13547 whole entry): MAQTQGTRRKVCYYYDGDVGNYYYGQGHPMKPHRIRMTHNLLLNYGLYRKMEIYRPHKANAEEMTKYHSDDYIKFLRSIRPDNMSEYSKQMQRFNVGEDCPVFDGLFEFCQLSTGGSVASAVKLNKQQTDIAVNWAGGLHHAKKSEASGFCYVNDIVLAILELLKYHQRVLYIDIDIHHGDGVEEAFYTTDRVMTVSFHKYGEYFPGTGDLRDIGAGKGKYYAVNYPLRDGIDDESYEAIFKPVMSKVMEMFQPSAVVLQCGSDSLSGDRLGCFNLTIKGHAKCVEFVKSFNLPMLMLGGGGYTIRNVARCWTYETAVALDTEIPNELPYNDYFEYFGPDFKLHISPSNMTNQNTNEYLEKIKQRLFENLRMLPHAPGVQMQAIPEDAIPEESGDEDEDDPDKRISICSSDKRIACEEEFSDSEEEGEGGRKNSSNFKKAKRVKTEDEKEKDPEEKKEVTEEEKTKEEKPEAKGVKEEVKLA
Method for U937 cells: To further investigate the inhibition properties of the carbamates, we tested their antiproliferative activity on human promyelocytic leukemia cells (HL60) and on human histiocytic lymphoma cells (U937).
HL60 or U937 cells were seeded in 96-well tissue culture plates at a density of 5 × 10^4 cells per well. Cells were immediately incubated with inhibitors. As these cells already differentiate with 1% DMSO content, inhibitors were prepared as 200× stock solutions in DMSO. In all cases, inhibitors were compared to DMSO vehicle only, and three replicates per concentration were used. Growth inhibition was determined using the CellTiter 96® AQueous Non-Radioactive Cell Proliferation Assay according to the manufacturer’s instructions. Briefly, 5 × 10^4 of HL60 or U937 cells per well were treated with DMSO stocks of the respective inhibitors or with DMSO in 100 µL cell culture medium and incubated for 72 h at 37 °C and 5% CO2 in transparent 96-well microtiter plates (PAA). Subsequently, 20 µL of the detection reagent (containing a tetrazolium salt) was added to each well and incubated for 4 more hours under the same conditions. After this time, absorption was measured at a wavelength of 490 nm (BMG Polarstar, BMG Labtech, Ortenberg, Germany).

A word on the GI50: it is the concentration that inhibits growth by half. Take `O=C(CCCCCCC(=O)Nc1ccccc1)NO` [SAHA (1), N-hydroxy-N′-phenyloctanediamide, reference compound]: the GI50 in the series on HL60 cells turned out to be 0.54 ± 0.03 µM; in the series on U937 cells, 0.43 ± 0.09 µM.
The IC50 is the midpoint of a concentration-inhibition curve. For `CCCCOc1ccc(CC(=O)NO)cc1` [Bufexamac (8), bufexamac, reference compound], the IC50 at recombinant human HDAC1 was determined as 31.7 ± 4.75 µM. The concentration for half-maximal inhibition (IC50) at recombinant human HDAC6 worked out at 2.24 ± 0.05 µM. Further, in series [1], the “acetylation levels of H3” value is on record as “not affected” and the tubulin acetylation entry is given as “hyperacetylation of tubulin”. Further, the GI50 with HL60 cells came out at 31.8 ± 0.57 µM.
As to `CCCCOc1ccc(CC(=O)NOC(=O)NC(C)C)cc1` [Compound 9], the inhibition at 300 µM at recombinant human HDAC1 (at 300 µM, read-out: Inhibition (%) @ Concentration (µM) HDAC1) was 49%. On recombinant human HDAC6, the half-inhibitory concentration (IC50) was determined as 13.7 ± 0.16 µM. In addition, in series [1], the “acetylation levels of H3” value is listed as “not affected” and the tubulin acetylation entry is “hyperacetylation of tubulin”. For the same molecule, the GI50 in the series on HL60 cells was 33.99 ± 0.06 µM.
In the case of `O=C(CCCCCCC(=O)Nc1ccccc1)NOC(=O)N1CCNCC1` [Compound 7, [(8-Anilino-8-oxo-octanoyl)amino]piperazin-4-ium-1-carboxylate trifluoroacetate], the IC50 on recombinant human HDAC1 is 5.1 µM and 5.09 µM; on recombinant human HDAC6, 3.7 µM and 3.71 µM; in series [3], 22.4 ± 0.28 µM. In series [2], the “Release of SAHA (%)” value worked out at 3.7%. The “effect on H3 and tubulin acetylation levels” value in series [1] is on record as “least effective substance”. Moreover, the GI50 in the series on HL60 cells stood at 25.9 ± 1.96 µM.

The values are drawn from PMC6017415, “Carbamates as Potential Prodrugs and a New Warhead for HDAC Inhibition” (Molecules : A Journal of Synthetic Chemistry and Natural …, 2018).
